The source of these data is US5510478A, “2-arylamidothiazole derivatives with CNS activity” (American Home Products Corporation, priority 1994, dated 1996).

Like-named read-outs stand apart in the source and are kept apart here.

In data set [1] the test system is Sprague-Dawley male rats (scopolamine-disrupted performance). Briefly: Eight arm radial maze, reversal of scopolamine disrupted rat performance. The conditions noted are these: ip, scopolamine HBr 0.3 mg/kg s.c., test compound i.p., read-out: minimum effective dose (MED), reversal of scopolamine disrupted rat performance. Format: in vivo. As to the method:
The compound of Example 1 was also tested in the eight arm radial maze test procedure in which Sprague-Dawley male rats at 85% of their free feeding weight are trained to obtain two food pellets from food cups placed at the ends of four of the eight arms radiating from a circular central area of the maze, in a five minute period. After training to a level of error (return to a previously entered arm is error) equal to or less than 2, the rats performance is disrupted with scopolamine HBr (0.3 mg/kg, s.c.) and test compound dosage (i.p.). The number of errors are then determined and compared with control receiving scopolamine alone.

A further data set concerns the target T1, M1 receptor (rat cortex) (Rattus norvegicus, UniProt P08482).
T1 construct: from tissue; host or cells: rat brain cortex
T1 sequence (P08482 1-460): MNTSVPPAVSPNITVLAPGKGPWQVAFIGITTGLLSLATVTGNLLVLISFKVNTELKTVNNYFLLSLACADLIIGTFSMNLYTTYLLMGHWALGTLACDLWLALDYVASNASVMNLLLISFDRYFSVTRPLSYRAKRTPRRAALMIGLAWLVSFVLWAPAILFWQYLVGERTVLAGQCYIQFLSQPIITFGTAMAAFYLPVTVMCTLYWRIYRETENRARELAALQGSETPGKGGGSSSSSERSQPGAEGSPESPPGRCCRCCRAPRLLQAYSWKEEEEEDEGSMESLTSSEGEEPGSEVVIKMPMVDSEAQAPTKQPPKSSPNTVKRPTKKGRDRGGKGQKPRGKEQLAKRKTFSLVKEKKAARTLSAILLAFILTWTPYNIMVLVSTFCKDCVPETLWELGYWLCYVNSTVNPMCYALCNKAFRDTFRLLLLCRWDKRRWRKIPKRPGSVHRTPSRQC
In words: M1 [3H]pirenzepine binding in rat cortex. The conditions noted are these: for inhibition at 1 µM: read-out: M1 3H PZ binding in rat cortex at 1 μM, % inhibition.

Data set [2] addresses T2, M2 receptor (rat cerebellum) (Rattus norvegicus, UniProt P10980).
T2 sequence (P10980 1-466): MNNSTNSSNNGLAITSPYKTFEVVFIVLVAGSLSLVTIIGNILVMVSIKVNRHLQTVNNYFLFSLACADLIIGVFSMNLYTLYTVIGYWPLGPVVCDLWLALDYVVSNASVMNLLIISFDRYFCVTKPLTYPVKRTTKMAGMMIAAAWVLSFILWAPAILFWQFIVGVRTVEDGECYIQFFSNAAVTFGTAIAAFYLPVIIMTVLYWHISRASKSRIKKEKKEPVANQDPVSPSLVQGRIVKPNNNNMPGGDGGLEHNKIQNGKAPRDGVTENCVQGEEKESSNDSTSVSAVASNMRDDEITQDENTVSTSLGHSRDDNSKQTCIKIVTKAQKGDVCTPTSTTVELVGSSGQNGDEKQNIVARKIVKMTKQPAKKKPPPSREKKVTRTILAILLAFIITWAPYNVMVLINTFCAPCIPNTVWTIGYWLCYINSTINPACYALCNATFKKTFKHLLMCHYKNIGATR
In words: biochemical. As to conditions: read-out: M2 3H QNB binding in rat cerebellum, IC50.

Data set [3] concerns Male CFW mice (scopolamine-induced hyperactivity). In words: Reversal of scopolamine-induced hyperactivity in mouse swim tank. The conditions noted are these: ip, 5 min, 0.3 mg/kg scopolamine.HBr, swim distance, read-out: minimum effective dose (MED), reversing the hyperactivity of scopolamine treated animals. Format: in vivo. As to the method: The compound of Example 1 was also tested in accordance with the procedure of Symons et al, Soc. Neuroscience Abstracts 12:2, 897 (1986) in which Male CFW mice, 25 to 35 grams in weight are given the test compound in suitable vehicle plus 0.3 mg/kg scopoolamine.HBr in suitable vehicle, i.p.(3 groups of 12 animals each) or vehicle alone (1 group of 12 animals ) or vehicle plus scopolamine. HBr (1 group of 12 animals). The rates are placed in a swim tank, individually, containing 10 cm H2 O for a period of 5 minutes and the distance each animal swims is recorded.

Data set [4] deals with 5-HT1A serotonin receptor. Briefly: Serotonin 5-HT1A receptor binding, displacement of [3H]8-OHDPAT. The text has this: High affinity for the serotonin 5-HT1A receptor was established by testing the claimed compound's ability to displace ^3 H!8-OHDPAT (dipropylaminotetralin) from the 5-HT1A serotonin receptor following the procedure of Hall et al., J. Neurochem. 44, 1685 (1985). […] The anxiolytic activity of buspirone is believed to be, at least partially, due to its 5-HT1A receptor affinity (Vander Maclen et al., Eur. J. Pharmacol. 1986, 129 (1-2) 133-130).

The target in a further data set is T3, dopamine D-2 receptor (Rattus norvegicus, UniProt P61169).
T3 construct: from tissue; host or cells: limbic brain tissue (homogenate)
Briefly: Dopamine D-2 receptor binding, 3H-spiroperidol, limbic brain tissue. As to the method:
High affinity for the dopamine D-2 receptor was established by the standard experimental test procedure of Fields, et al., Brain Res., 136, 578 (1977) and Yamamura et al., eds., Neurotransmitter Receptor Binding, Raven Press, N.Y. (1978) wherein homogenized limbic brain tissue is incubated with ^3 H-spiroperidol and various concentrations of test compound, filtered and washed and shaken with Hydrofluor scintillation cocktail (National Diagnostics) and counted in a Packard 460 CD scintillation counter.

For data set [5] the following is noted: in vivo; cited from earlier work.
The subject of data set [6] is patients with mild to moderate Alzheimer's Disease. As to conditions: cited from earlier work; for memory improvement in patients (in words): mild to moderate Alzheimer's Disease.
Data set [7] concerns 5-HT1A serotonin receptor. As to conditions: standard for anxiolytic activity; cited from earlier work.

T3 sequence (P61169 whole entry): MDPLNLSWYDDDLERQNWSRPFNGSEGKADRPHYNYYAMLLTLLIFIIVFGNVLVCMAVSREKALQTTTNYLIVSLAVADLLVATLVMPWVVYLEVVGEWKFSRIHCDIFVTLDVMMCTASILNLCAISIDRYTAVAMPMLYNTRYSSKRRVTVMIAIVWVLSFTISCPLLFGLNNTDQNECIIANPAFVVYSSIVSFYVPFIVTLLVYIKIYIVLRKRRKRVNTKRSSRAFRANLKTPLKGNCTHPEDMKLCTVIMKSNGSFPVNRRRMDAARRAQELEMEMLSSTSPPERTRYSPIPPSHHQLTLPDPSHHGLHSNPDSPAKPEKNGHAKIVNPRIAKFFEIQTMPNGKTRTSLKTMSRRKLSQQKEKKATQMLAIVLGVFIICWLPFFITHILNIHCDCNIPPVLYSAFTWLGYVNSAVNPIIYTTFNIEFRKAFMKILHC

On to `CN(C)CCOC(=O)c1csc(NC(=O)c2cc(C(C)(C)C)c(O)c(C(C)(C)C)c2)n1` [Example 1, 2-3.5.-Bis(1.1-dimethylethyl)-4-hydroxybenzoyl!amino!-4-thiazolecarboxylic acid 2-(dimethylamino)ethyl ester], for which the minimal effective dose in data set [1] and in data set [3] was 3 mg/kg each time. For the same compound, the concentration for half-maximal inhibition (IC50) worked out at 0.054 µM at M1 receptor (rat cortex) (rat cortex, [3H]pirenzepine, read-out: M1 3H PZ binding in rat cortex, IC50) and 3.4 µM in data set [2].

Turning to `CN(C)CCNC(=O)c1csc(NC(=O)c2cc(C(C)(C)C)c(O)c(C(C)(C)C)c2)n1` [Example 2, 2-3,5,-Bis(1.1-dimethylethyl)-4-hydroxybenzoyl!amino!-N-2-(dimethylamino)ethyl!-4-thiazolecarboxamide], the inhibition at 1 µM at M1 receptor (rat cortex) (1 μM, rat cortex, [3H]pirenzepine) is 98.6%.

For the compound `CC(C)(C)c1cc(C(=O)Nc2nc(C(=O)NCCN3CC4CCC(CC4)C3)cs2)cc(C(C)(C)C)c1O` [Example 3], the inhibition at 1 µM at M1 receptor (rat cortex) came out at 70.5%.

In the case of `CC(C)(C)c1cc(C(=O)Nc2nc(C(=O)OCCN3CC4CCC(CC4)C3)cs2)cc(C(C)(C)C)c1O` [Example 4, 2-3.5-Bis(1.1-dimethylethyl)-4-hydroxybenzoyl!amino !-4-thiazolecarboxylic acid 2-(3-azabicyclo 3.2.2.!non-3-yl)ethyl ester], the inhibition at 1 µM on M1 receptor (rat cortex) came out at 90.6%.

Regarding `CC(C)(C)c1cc(C(=O)Nc2nc(C(=O)NCCCN3CC4CCC(CC4)C3)cs2)cc(C(C)(C)C)c1O` [Example 5, N-3-(3-Azabicyclo 3.2.2!non-3-yl)propyl-2-3.5-bis(1.1-dimethylethyl)-4-hydroxybenzoyl!amino!-4-thiazolecarboxamide], the inhibition at 1 µM at M1 receptor (rat cortex) is 78%.

Regarding `CC(C)(C)c1cc(C(=O)Nc2nc(C(=O)NCCCCN3CC4CCC(CC4)C3)cs2)cc(C(C)(C)C)c1O` [Example 6, N-4-(3-Azabicyclo 3.2.21non-3-yl)butyl!-2-3,5-bis(1,1-dimethylethyl)-4-hydroxybenzoyl!amino!-4-thiazolecarboxamide], on M1 receptor (rat cortex), the inhibition at 1 µM worked out at 86%.

Turning to `CC(C)(C)c1cc(C(=O)Nc2nc(C(=O)NC3CN4CCC3CC4)cs2)cc(C(C)(C)C)c1O` (stereo not drawn) [Example 7], the inhibition at 1 µM on M1 receptor (rat cortex) was 104%.

As for `O=C(Nc1nc(C(=O)NC2CN3CCC2CC3)cs1)c1ccc(OCc2ccccc2)cc1` (stereo not drawn) [Example 8], at M1 receptor (rat cortex), the inhibition at 1 µM stood at 85.8%.

For the compound `O=C(Nc1nc(C(=O)NCCCCN2CC3CCC(CC3)C2)cs1)c1ccc(OCc2ccccc2)cc1` [Example 9], the inhibition at 1 µM at M1 receptor (rat cortex) turned out to be 62%.

`O=C(Nc1nc(C(=O)NCCCN2CC3CCC(CC3)C2)cs1)c1ccc(O)cc1` [Example 10, N-3-(3- Azabicyclo 3.2.2!non-3-yl)propyl-2-4-hydroxybenzoyl!amino-4-thiazolecarboxamide]: the inhibition at 1 µM at M1 receptor (rat cortex) stood at 58.7%.

With `O=C(Nc1nc(C(=O)NCCCCN2CC3CCC(CC3)C2)cs1)c1ccc(O)cc1` [Example 11, N-4-(3-Azabicyclo 3.2.2!non-3-yl)butyl-2-4-hydroxybenzoyl!amino!-4-thiazolecarboxamide], the inhibition at 1 µM on M1 receptor (rat cortex) stood at 63.9%.

Take `O=C(Cc1csc(NC(=O)c2ccc(F)cc2)n1)NCCCCN1CC2CCC(CC2)C1` [Example 12, N-4-(3-Azabicyclo 3.2.2!non-3-yl)butyl-2-(4-fluorobenzoyl)amino!-4-thiazoleacetamide]: the inhibition at 1 µM on M1 receptor (rat cortex) is 57%.

On to `COc1ccccc1N1CCN(CCCOC(=O)Cc2csc(NC(=O)c3ccc(F)cc3)n2)CC1` [Example 13, 2-(4-Fluorobenzoyl)amino!-4-thiazoleacetic acid 3-4-(2-methoxyphenyl)-1-piperazinyl!propyl ester], for which the “5-HT1A Binding (% Inhibition at 1 μM)” value in data set [4] came to 100%. At dopamine D-2 receptor, the inhibition at 1 µM turned out to be 81%.

For `COc1ccccc1N1CCN(CCCOC(=O)Cc2csc(NC(=O)c3cc(C(C)(C)C)c(O)c(C(C)(C)C)c3)n2)CC1` [Example 14, 2-3,5-Bis(1,1-dimethylethyl)-4-hydroxyphenyl!carbonyl!amino!-4-thiazoleacetic acid 3-4-(2-methoxyphenyl)-1-piperazinyl!propyl ester], the “5-HT1A Binding (% Inhibition at 1 μM)” value in data set [4] turned out to be 89%. Further, the inhibition at 1 µM on dopamine D-2 receptor was 91%.

As for `COc1ccccc1N1CCN(CCOC(=O)Cc2csc(NC(=O)c3cc(C(C)(C)C)c(O)c(C(C)(C)C)c3)n2)CC1` [Example 15], the inhibition at 1 µM on dopamine D-2 receptor amounted to 51%.

Regarding `O=C(Cc1csc(NC(=O)c2ccc(F)cc2)n1)OCCN1CCN(c2ncccn2)CC1` [Example 16, 2-(4-Fluorobenzoyl)amino!-4-thiazoleacetic acid 2-4-(2-pyrimidinyl)-1-piperazinyl!ethyl ester], the inhibition at 1 µM on dopamine D-2 receptor was determined as 34%.

On to `CC(C)(C)c1cc(C(=O)Nc2nc(CC(=O)NCCN3CCN(c4ncccn4)CC3)cs2)cc(C(C)(C)C)c1O` [Example 17], for which the inhibition at 0.1 µM on dopamine D-2 receptor (0.1 μM) stood at 5%.

In the case of `COC(=O)C1=CCCN(C)C1` [arecoline], the “half-life (in words)” value in data set [5] was “short half-life”. Further, in [6], the “memory improvement in patients (in words)” value is on record as “memory improvement”.

In the case of `O=C1CC2(CCCC2)CC(=O)N1CCCCN1CCN(c2ncccn2)CC1` [buspirone], the “5-HT1A receptor affinity (in words)” value in data set [7] is on record as “potent affinity”.

Consider `Nc1c2c(nc3ccccc13)CCCC2` [tacrine], for which the “adverse side effects (in words)” value in data set [6] (especially at the higher doses where it is most effective) was “adverse side effects”. Further, the “memory improvement in patients (in words)” value in [6] is “improvement in memory”.
